Activity calls are given as the source filed them. The rule behind the calls is not given here.
Columns and labels:
[1] = molecular target: Poly [ADP-ribose] polymerase 1 (Homo sapiens, UniProt P09874); assay: Inhibition of PARP1 (unknown origin) incubated for 45 mins in presence of biotinylated-NAD+ by microplate reader analysis
[2] = molecular target: T1, Bromodomain-containing protein 4 (Homo sapiens, UniProt O60885); assay: Inhibition of recombinant BRD4 (unknown origin) incubated for 120 mins by TR-FRET assay
MDA-MB-231 = assay: Antiproliferative activity against human MDA-MB-231 cells assessed as reduction in cell viability after 7 days; type: functional, cell-based; conditions: MDA-MB-231, 168 h
SW1990 [3] = assay: Antiproliferative activity against human SW1990 cells assessed as reduction in cell viability after 4 days by MTT assay; type: functional, cell-based; conditions: SW1990, 96 h
Mus musculus [4] = assay: In vivo inhibition of BRD4 expression in human […] cells xenografted in BALB/c mouse at 45 mg/kg, ip administered for 28 consecutive days by Q-PCR analysis; type: functional, organism-based; conditions: time 28.0 day
Mus musculus [5] = assay: In vivo inhibition of PARP1 expression in human […] cells xenografted in BALB/c mouse at 45 mg/kg, ip administered for 28 consecutive days by Western blot analysis; type: functional, organism-based; conditions: time 28.0 day
SW1990 [6] = assay: Effect on cell cycle progression in human SW1990 cells assessed as reduction in CDK6 expression at 6 uM after 4 days by Western blot analysis; type: functional, cell-based; conditions: time 4.0 day
Mus musculus [7] = assay: In vivo inhibition of PARP1 expression in human […] cells xenografted in BALB/c mouse at 45 mg/kg, ip administered for 28 consecutive days by Q-PCR analysis; type: functional, organism-based; conditions: time 28.0 day
SW1990 [8] = assay: Inhibition of homologous recombinant repair in human SW1990 cells assessed as reduction in BRCA1 expression at 6 uM after 4 days by Q-PCR analysis; type: functional, cell-based; conditions: time 4.0 day
Mus musculus [9] = assay: Effect on cell cycle progression in human SW1990 cells xenografted in BALB/c mouse assessed as reduction in CCND1 expression at 45 mg/kg, ip after 4 days by Western blot analysis; type: functional, organism-based; conditions: time 4.0 day
Mus musculus [10] = assay: Effect on cell cycle progression in human SW1990 cells xenografted in BALB/c mouse assessed as reduction in PLK1 expression at 45 mg/kg, ip after 4 days by Q-PCR analysis; type: functional, organism-based; conditions: time 4.0 day
SW1990 [11] = assay: Induction of DNA damage in human SW1990 cells assessed as increase in gammaH2AX at 6 uM incubated for 4 days by immunofluorescence assay; type: functional, cell-based; conditions: time 4.0 day
CAPAN-1 = assay: Antiproliferative activity against human CAPAN-1 cells assessed as reduction in cell viability after 4 days by MTT assay; type: functional, cell-based; conditions: CAPAN-1, 96 h
SW1990 [12] = assay: Induction of autophagy in human SW1990 cells assessed as increase in LC3B expression at 6 uM incubated for 4 days by immunofluorescence assay; type: functional, cell-based; conditions: time 4.0 day
Mus musculus [13] = assay: In vivo inhibition of BRD4 expression in human […] cells xenografted in BALB/c mouse at 45 mg/kg, ip administered for 28 consecutive days by Western blot analysis; type: functional, organism-based; conditions: time 28.0 day
SW1990 [14] = assay: Effect on cell cycle progression in human SW1990 cells assessed as reduction in CCND1 expression at 6 uM after 4 days by Q-PCR analysis; type: functional, cell-based; conditions: time 4.0 day
[15] = molecular target: T1, Bromodomain-containing protein 4; assay: Inhibition of BRD4 expression in human SW1990 cells at 6 uM after 4 days by Western blot analysis; type: cell-based; conditions: time 4.0 day
SW1990 [16] = assay: Effect on cell cycle progression in human SW1990 cells assessed as reduction in CDK6 expression at 6 uM after 4 days by Q-PCR analysis; type: functional, cell-based; conditions: time 4.0 day
Mus musculus [17] = assay: Effect on cell cycle progression in human SW1990 cells xenografted in BALB/c mouse assessed as reduction in PLK1 expression at 45 mg/kg, ip after 4 days by Western blot analysis; type: functional, organism-based; conditions: time 4.0 day
Mus musculus [18] = assay: Effect on cell cycle progression in human SW1990 cells xenografted in BALB/c mouse assessed as reduction in CDK6 expression at 45 mg/kg, ip after 4 days by Q-PCR analysis; type: functional, organism-based; conditions: time 4.0 day
[19] = molecular target: T1, Bromodomain-containing protein 4; assay: Inhibition of BRD4 expression in human SW1990 cells at 6 uM after 4 days by Q-PCR analysis; type: cell-based; conditions: time 4.0 day
SW1990 [20] = assay: Effect on cell cycle progression in human SW1990 cells assessed as reduction in PLK1 expression at 6 uM after 4 days by Q-PCR analysis; type: functional, cell-based; conditions: time 4.0 day
SW1990 [21] = assay: Inhibition of homologous recombinant repair in human SW1990 cells assessed as reduction in FOXM1 expression at 6 uM after 4 days by Q-PCR analysis; type: functional, cell-based; conditions: time 4.0 day
CFPAC-1 = assay: Antiproliferative activity against human CFPAC-1 cells assessed as reduction in cell viability after 4 days by MTT assay; type: functional, cell-based; conditions: CFPAC-1, 96 h
Mus musculus [22] = assay: In vivo inhibition of PARP1 expression in human […] cells xenografted in BALB/c mouse at 45 mg/kg, ip administered for 28 consecutive days by immunohistochemical analysis; type: functional, organism-based; conditions: time 28.0 day
SW1990 [23] = assay: Inhibition of homologous recombinant repair in human SW1990 cells assessed as reduction in BRCA1 expression at 6 uM after 4 days by Western blot analysis; type: functional, cell-based; conditions: time 4.0 day
Mus musculus [24] = assay: Toxicity in BALB/c mouse xenografted with human SW1990 cells assessed as spleen damage at 45 mg/kg, ip administered for 28 consecutive days by H and E staining based […] microscopic analysis; type: organism-based; conditions: in vivo, 672 h, time 28 day
Mus musculus [25] = assay: Toxicity in BALB/c mouse xenografted with human SW1990 cells assessed as kidney damage at 45 mg/kg, ip administered for 28 consecutive days by H and E staining based […] microscopic analysis; type: organism-based; conditions: in vivo, 672 h, time 28 day
Mus musculus [26] = assay: Effect on cell cycle progression in human SW1990 cells xenografted in BALB/c mouse assessed as reduction in CCND1 expression at 45 mg/kg, ip after 4 days by Q-PCR analysis; type: functional, organism-based; conditions: time 4.0 day
SW1990 [27] = assay: Effect on cell cycle progression in human SW1990 cells assessed as reduction in PLK1 expression at 6 uM after 4 days by Western blot analysis; type: functional, cell-based; conditions: time 4.0 day
SW1990 [28] = assay: Inhibition of homologous recombinant repair in human SW1990 cells assessed as reduction in Rad51 expression at 6 uM after 4 days by Western blot analysis; type: functional, cell-based; conditions: time 4.0 day
Mus musculus [29] = assay: Toxicity in BALB/c mouse xenografted with human SW1990 cells assessed as liver damage at 45 mg/kg, ip administered for 28 consecutive days by H and E staining based […] microscopic analysis; type: organism-based; conditions: in vivo, 672 h, time 28 day
Mus musculus [30] = assay: In vivo inhibition of BRD4 expression in human […] cells xenografted in BALB/c mouse at 45 mg/kg, ip administered for 28 consecutive days by immunohistochemical analysis; type: functional, organism-based; conditions: time 28.0 day
SW1990 [31] = assay: Induction of DNA damage in human SW1990 cells assessed as tail DNA at 6 uM incubated for 4 days by comet assay; type: functional, cell-based; conditions: time 4.0 day
Mus musculus [32] = assay: Toxicity in BALB/c mouse xenografted with human SW1990 cells assessed as heart damage at 45 mg/kg, ip administered for 28 consecutive days by H and E staining based […] microscopic analysis; type: organism-based; conditions: in vivo, 672 h, time 28 day
SW1990 [33] = assay: Inhibition of homologous recombinant repair in human SW1990 cells assessed as reduction in Rad51 expression at 6 uM after 4 days by Q-PCR analysis; type: functional, cell-based; conditions: time 4.0 day
Mus musculus [34] = assay: Toxicity in BALB/c mouse xenografted with human SW1990 cells assessed as lung damage at 45 mg/kg, ip administered for 28 consecutive days by H and E staining based […] microscopic analysis; type: organism-based; conditions: in vivo, 672 h, time 28 day
Mus musculus [35] = assay: Toxicity in BALB/c mouse xenografted with human SW1990 cells assessed as effect on body weight at 45 mg/kg, ip administered for 28 consecutive days; type: organism-based; conditions: in vivo, 672 h, time 28 day
Mus musculus [36] = assay: Effect on cell cycle progression in human SW1990 cells xenografted in BALB/c mouse assessed as reduction in CDK6 expression at 45 mg/kg, ip after 4 days by Western blot analysis; type: functional, organism-based; conditions: time 4.0 day
SW1990 [37] = assay: Effect on cell cycle progression in human SW1990 cells assessed as reduction in CCND1 expression at 6 uM after 4 days by Western blot analysis; type: functional, cell-based; conditions: time 4.0 day
SW1990 [38] = assay: Induction of autophagy in human SW1990 cells assessed as reduction in p62 expression at 6 uM incubated for 4 days by immunofluorescence assay; type: functional, cell-based; conditions: time 4.0 day
[39] = molecular target: T1, Bromodomain-containing protein 4; assay: Inhibition of recombinant BRD4 (unknown origin) at 0.5 uM incubated for 120 mins by TR-FRET assay relative to control

Poly [ADP-ribose] polymerase 1, sequence (P09874 whole entry): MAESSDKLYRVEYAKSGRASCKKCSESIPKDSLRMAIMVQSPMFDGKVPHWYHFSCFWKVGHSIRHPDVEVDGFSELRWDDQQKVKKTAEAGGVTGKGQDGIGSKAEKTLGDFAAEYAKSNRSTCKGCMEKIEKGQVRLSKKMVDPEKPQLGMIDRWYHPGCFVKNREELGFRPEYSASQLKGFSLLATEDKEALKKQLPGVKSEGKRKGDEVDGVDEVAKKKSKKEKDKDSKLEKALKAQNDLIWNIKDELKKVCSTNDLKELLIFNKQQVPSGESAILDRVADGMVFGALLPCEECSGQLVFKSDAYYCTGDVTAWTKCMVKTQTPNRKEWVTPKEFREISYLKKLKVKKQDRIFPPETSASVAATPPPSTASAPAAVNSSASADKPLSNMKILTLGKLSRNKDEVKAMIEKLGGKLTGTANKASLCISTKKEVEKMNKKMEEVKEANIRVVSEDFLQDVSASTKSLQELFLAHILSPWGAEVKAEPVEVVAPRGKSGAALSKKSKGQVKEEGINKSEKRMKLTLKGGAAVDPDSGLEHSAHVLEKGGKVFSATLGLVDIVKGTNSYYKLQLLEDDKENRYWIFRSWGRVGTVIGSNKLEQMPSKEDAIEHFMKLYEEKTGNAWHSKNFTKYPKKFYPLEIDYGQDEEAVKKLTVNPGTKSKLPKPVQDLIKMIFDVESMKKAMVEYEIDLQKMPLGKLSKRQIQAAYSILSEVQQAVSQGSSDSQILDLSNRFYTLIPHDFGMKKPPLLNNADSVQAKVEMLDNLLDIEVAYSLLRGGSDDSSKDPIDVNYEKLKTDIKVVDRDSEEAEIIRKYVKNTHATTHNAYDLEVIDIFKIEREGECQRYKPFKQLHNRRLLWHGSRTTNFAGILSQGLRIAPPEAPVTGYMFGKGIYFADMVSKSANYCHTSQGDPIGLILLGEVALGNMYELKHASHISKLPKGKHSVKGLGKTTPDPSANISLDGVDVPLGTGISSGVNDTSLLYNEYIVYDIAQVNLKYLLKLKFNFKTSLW

CC[C@@H]1C(=O)N(C)c2cnc(Nc3ccc(-c4nc5c(C(N)=O)cccc5[nH]4)cc3OC)nc2N1C1CCCC1
IC50 [1]: 150 nM
IC50 [2]: 237 nM
IC50 (MDA-MB-231): 430 nM
IC50 (SW1990 [3]): 2120 nM

CC[C@@H]1C(=O)N(C)c2cnc(Nc3cccc(-c4nc5c(C(N)=O)cccc5[nH]4)c3)nc2N1C1CCCC1
IC50 [1]: 155 nM
IC50 [2]: 693 nM

O=C(c1cc(Cc2n[nH]c(=O)c3ccccc23)ccc1F)N1CCN(C(=O)C2CC2)CC1 [OLAPARIB]
Activity (Mus musculus [4]): inactive
Activity (Mus musculus [5]): inactive
Activity (SW1990 [6]): inactive
Activity (Mus musculus [7]): inactive
inhibition (SW1990 [8]): inactive
Activity (Mus musculus [9]): inactive
Activity (Mus musculus [10]): inactive
Activity (SW1990 [11]): inactive
IC50 (CAPAN-1): 8420 nM
Activity (SW1990 [12]): inactive
Activity (Mus musculus [13]): inactive
Activity (SW1990 [14]): inactive
inhibition [15]: inactive
Activity (SW1990 [16]): inactive
Activity (Mus musculus [17]): inactive
Activity (Mus musculus [18]): inactive
inhibition [19]: inactive
Activity (SW1990 [20]): inactive
inhibition (SW1990 [21]): inactive
IC50 (CFPAC-1): 13700 nM
Activity (Mus musculus [22]): inactive
inhibition (SW1990 [23]): inactive
Activity (Mus musculus [24]): Non-Toxic
Activity (Mus musculus [25]): Non-Toxic
IC50 (MDA-MB-231): 8480 nM
Activity (Mus musculus [26]): inactive
Activity (SW1990 [27]): inactive
inhibition (SW1990 [28]): inactive
Activity (Mus musculus [29]): Non-Toxic
Activity (Mus musculus [30]): inactive
Activity (SW1990 [31]): Active
Activity (Mus musculus [32]): Non-Toxic
inhibition (SW1990 [33]): inactive
Activity (Mus musculus [34]): Non-Toxic
Activity (Mus musculus [35]): Non-Toxic
Activity (Mus musculus [36]): inactive
IC50 (SW1990 [3]): 5730 nM
Activity (SW1990 [37]): inactive
Activity (SW1990 [38]): inactive

CC[C@@H]1C(=O)N(C)c2cnc(Nc3ccc(-c4nc5c(C(N)=O)cccc5[nH]4)cc3OC3CCCC3)nc2N1C1CCCC1
IC50 [1]: 1820 nM
inhibition [39]: 47%

CCOc1cc(-c2nc3c(C(N)=O)cccc3[nH]2)ccc1Nc1ncc2c(n1)N(C1CCCC1)[C@H](CC)C(=O)N2C
IC50 [1]: 306 nM
IC50 (MDA-MB-231): 790 nM
IC50 (SW1990 [3]): 2450 nM
inhibition [39]: 86%

CC[C@@H]1C(=O)N(C)c2cnc(Nc3ccc(-c4nc5c(C(N)=O)cccc5[nH]4)cc3OC)nc2N1Cc1ccccc1
IC50 [1]: 461 nM
inhibition [39]: 21%

CC[C@@H]1C(=O)N(C)c2cnc(Nc3ccc(-c4nc5c(C(N)=O)cccc5[nH]4)cc3OC)nc2N1Cc1ccc(C)s1
IC50 [1]: 338 nM
IC50 (MDA-MB-231): 1250 nM
IC50 (SW1990 [3]): 3740 nM
inhibition [39]: 52%

CC[C@@H]1C(=O)N(C)c2cnc(Nc3ccc(-c4nc5c(C(N)=O)cccc5[nH]4)cc3)nc2N1C1CCCC1
IC50 [1]: 43 nM
IC50 [2]: 842 nM
IC50 (MDA-MB-231): 830 nM
IC50 (SW1990 [3]): 2810 nM

CC[C@@H]1C(=O)N(C)c2cnc(Nc3ccc(-c4nc5c(C(N)=O)cccc5[nH]4)cc3OC)nc2N1Cc1ccc(OC)cc1OC
IC50 [1]: 570 nM
inhibition [39]: 17%
